# Entries after “also recorded” stand apart in the source; their conditions may differ.
# Tests used:
# [1] = tested on: OGD cells (retinal ganglion cells); assay: Increase in survival of OGD cells at fixed concentrations (similar assay); assay type: cell-based, rat
# [2] = tested on: Oxygen/Glucose Deprived RGCs (retinal ganglion cells); assay: Protection of oxygen/glucose deprived (OGD) retinal ganglion cells, EC50; settings: overall judgement
# Experimental: Each compound was added to control cells and to cells deprived of oxygen and glucose for the time period from 30 minutes prior to OGD, during OGD, and for 24 and 48 hours after OGD.
# RGCs from postnatal day 8 (P8) Sprague-Dawley rats were purified as previously described (Barres et al., 1988; Meyer-Franke et al., 1995). Purified retinal ganglion cells were plated onto tissue culture plastic precoated with poly-D-lysine and merosin, and cultured in serum-free Neurobasal medium (Gibco) containing various supplements.
# Approximately 5,000 purified RGCs were cultured in 96-well plates (Falcon), precoated with poly-D-lysine (PDL, 70 kD, 10 mg/ml; Sigma) and merosin (2 mg/ml; Gibco). The RGCs were cultured in serum-free Neurobasal medium (Brewer et al., 1993; Gibco) containing Sato-Bottenstein and B27 (Gibco) supplement, insulin (Sigma, 5 mg/ml), brain-derived neurotrophic factor (BDNF, 25 ng/ml; Preprotech), ciliary neurotrophic factor (CNTF, 20 ng/ml; Preprotech) and forskolin (10 mM, Sigma). The percentage of surviving cells was assessed at 3, 7, and 14 days by the MTT assay.
# Retinal ganglion cells were grown in 96-well plates for 5 days in serum-free medium as described above. On the sixth day cells were washed three times in a salt solution, e.g. Earle's balanced salt solution (EBSS, Gibco), containing glucose for control cells, and lacking glucose for test cells (oxygen/glucose-deprived cells). Control cells were further incubated in a 5% CO2 incubator while OGD cells were deprived of oxygen in an anaerobic chamber (for 3 hours). Test compounds were added to control cells and OGD cells for the time period from 30 minutes prior to OGD, during OGD, and for 24 and 48 hours after OGD.
# After 3 hours OGD, control and test cells were transferred to growth medium with glucose and cultured an additional 48 hours in a 5% CO2 incubator, followed by a determination of cell viability using MTT, propidium iodide and annexin assays.
# For the cell viability assay, MTT was added to culture and incubated at 37° C. for 1 hr. […] Viable and dead cells are counted by bright field microscopy at various times, e.g. 24, 48, or 72 hours after oxygen/glucose and/or growth factor deprivation. All values are reported as the mean (average) +/− the standard error of the mean (SEM) for at least three replicate cultures.
# [3] = tested on: Oxygen/Glucose Deprived Cardiac Myocytes; assay: Protection of oxygen/glucose deprived cardiac myocytes; assay type: cell-based
# Experimental: The hypoxic cardiac myocyte (CM) has been used as a simplified model of myocardial ischemia. In the present study, cultures of CM's were deprived of oxygen and glucose for 8 hours, then also exposed to 24-48 hours reoxygenation. It is known that reperfusion of the damaged areas can be one of the major mechanisms of myocardial cellular injury. […] Cell survival was quantitated as described above.
# [4] = tested on: rat middle cerebral artery occlusion (MCAO) model of focal ischemia; assay: MCAO in vivo stroke model: ischemic, infarct and edema volumes; settings: for Reducing post-ischemic damage (in words): rats; for % Protection, Cortical infarct volume / % Protection, Cortical penumbra / % Protection, Edema / % Protection, Subcortical infarct volume / % Protection, Subcortical penumbra / % Protection, Total infarct volume / % Protection, Total ischemic volume: rat
# Experimental: Compounds were administered by either an IV (intravenous) or ICV (intracerebroventricular) route in the MCAO model, described above and in Example 18. The extent of ischemic damage in the absence and presence of compound was assessed by visualization of coronal brain slices. Conversion of 2,3,5-triphenyltetrazolium chloride (TTC) to formazan in normal tissue produces a red color. Unstained areas (white) constitute the infarct, whereas pink areas between white (infarction) and red stained areas (normal brain) define the ischemia penumbra. Preliminary studies confirmed that tissues stained pink contained mixed populations of living and dead cells.
# Results are also illustrated in FIGS. 2-3 for ICV administration and FIGS. 4-5 for IV administration.
# Adult male Wistar rats weighing 310-380 g were used. Animals were fasted overnight but allowed free access to water. Anesthesia was induced and maintained with 3% isoflurane in […]. Systemic blood pressure was recorded before, during and after middle cerebral artery occlusion (MCAO) and immediately before administering the test compound. Subjects received test compound SNX 912, 5 mg/kg ICV pre-MCAO, or 25 mg/kg IV immediately following reperfusion, after two hours MCAO, as compared to control subjects, which received deionized water. Temperature was controlled and recorded before, during and following reperfusion. After reperfusion, temperature was measured every hour for 4 hrs post-reperfusion.
# All animals were subjected to 2 hr of MCAO using the intraluminal filament technique of Koizume et al. (1986) as modified by Zhao et al. (1994). A midline surgical incision was made to expose the right common, external and internal carotid arteries. The common cartotid, external carotid and occipital arteries were tightly ligated, and the internal carotid artery was temporarily closed with a microvascular clip. A small incision was made in the common carotid artery and a nylon monofilament was inserted into the internal carotid artery through the common carotid artery. The filament was then carefully advanced 19 mm cephalad to occlude the middle cerebral artery at its site of origin within the Circle of Willis. […] After 2 hr of MCAO, the animals were re-anesthetized with 1.5% halothane, and the occlude filament was withdrawn to allow reperfusion.
# Because MCAO by the intraluminal filament technique can give rise to intra- and post-ischemia hyperthermia, rectal temperature was controlled by external heating and cooling for 6 hrs after initiating MCAO. Rectal temperature was maintained at 37.5+/−0.5° C.
# Animals were killed 24 hr post-reperfusion by CO2 asphyxiation. Following asphyxiation, the brains were quickly removed and chilled in ice cold 0.9% saline for 10 min. To visualize the extent of ischemic damage, seven 2 mm thick coronal slices were cut from each brain with a tissue slicer beginning with 1 mm posterior to the anterior pole. The slices were immersed in a 0.9% saline solution containing 1.0% 2,3,5-tripheyltetrazolim chloride (TTC) and incubated at 37° C. for 30 minutes, and observed for the presence of formazan (red), which is produced by the reduction of TTC by endogenous dehydrogenase activity in normal living tissues.
# [5] = 8 hrs OGD / 24 hrs reoxygenation
# [6] = 8 hrs OGD / 48 hrs reoxygenation
# [7] = IV (25 mg/kg) immediately following reperfusion after 2 h MCAO
smiles,measurement,setting,value
"O=[N+]([O-])c1cccc2[nH]c(Cc3nc4ccccc4[nH]3)nc12 [SNX 900, 2-(1H-benzimidazol-2-ylmethyl)4-nitro-1H-benzimidazole]",Percent Increase in Survival over OGD Control Cells,[1]; Concn 0.01 μM,++ (50%-100% increase)
same,Percent Increase in Survival over OGD Control Cells,[1]; Concn 0.1 μM,+++ (>100% increase)
same,Percent Increase in Survival over OGD Control Cells,[1]; Concn 10 μM,+ (up to 50% increase)
same,Percent Increase in Survival over OGD Control Cells,[1]; Concn .1 μM,++ (50%-100% increase)
same,"Effectiveness in protecting OGD RGCs (in words, from Tables 5 and 6)",[2],more effective overall than the unsubstituted compound
"Nc1cccc2[nH]c(Cc3nc4c(N)cccc4[nH]3)nc12 [SNX 903, 4,4′-diamino*]",Percent Increase in Survival over OGD Control Cells,[1]; Concn 0.01 μM,+++ (>100% increase)
same,Percent Increase in Survival over OGD Control Cells,[1]; Concn 0.1 μM,+++ (>100% increase)
same,Percent Increase in Survival over OGD Control Cells,[1]; Concn 10 μM,++ (50%-100% increase)
same,Percent Increase in Survival over OGD Control Cells,[1]; Concn .1 μM,+++ (>100% increase)
same,"Effectiveness in protecting OGD RGCs (in words, from Tables 5 and 6)",[2],more effective overall than the unsubstituted compound
"Nc1cccc2[nH]c(Cc3nc4ccccc4[nH]3)nc12 [SNX 912, 2-(benzimidazol-2′-yl)methyl-4-amino benzimidazole]",EC50,[3]; [5],310 nM
same,TI (therapeutic index),[3]; [5],>30
same,EC50,[3]; [6],55 nM
same,TI (therapeutic index),[3]; [6],>200
same,Protection of cardiac myocytes from apoptotic cell death (in words),"[3]; compared to untreated OGD cells, dose dependent, nanomolar concentrations",protected the cardiac myocytes from apoptotic cell death; also recorded: effective
same,Reducing post-ischemic damage (in words),[4]; 5 mg/kg ICV,effective
same,Reducing post-ischemic damage (in words),[4]; 25 mg/kg IV,effective
same,"% Protection, Cortical infarct volume",[4]; ICV (5 mg/kg) pre-MCAO,76%
same,"% Protection, Cortical penumbra",[4]; ICV (5 mg/kg) pre-MCAO,30%
same,"% Protection, Edema",[4]; ICV (5 mg/kg) pre-MCAO,80%
same,"% Protection, Subcortical infarct volume",[4]; ICV (5 mg/kg) pre-MCAO,75%
same,"% Protection, Subcortical penumbra",[4]; ICV (5 mg/kg) pre-MCAO,7%
same,"% Protection, Total infarct volume",[4]; ICV (5 mg/kg) pre-MCAO,76%
same,"% Protection, Total ischemic volume",[4]; ICV (5 mg/kg) pre-MCAO,47%
same,"% Protection, Cortical infarct volume",[4]; [7],53%
same,"% Protection, Cortical penumbra",[4]; [7],10%
same,"% Protection, Edema",[4]; [7],26%
same,"% Protection, Subcortical infarct volume",[4]; [7],55%
same,"% Protection, Subcortical penumbra",[4]; [7],18%
same,"% Protection, Total infarct volume",[4]; [7],55%
same,"% Protection, Total ischemic volume",[4]; [7],32%
same,Percent Increase in Survival over OGD Control Cells,[1]; Concn 0.001 μM,++ (50%-100% increase)
same,Percent Increase in Survival over OGD Control Cells,[1]; Concn 0.01 μM,++ (50%-100% increase)
same,Percent Increase in Survival over OGD Control Cells,[1]; Concn 0.1 μM,++ (50%-100% increase)
same,Percent Increase in Survival over OGD Control Cells,[1]; Concn 1 μM,+++ (>100% increase)
same,Percent Increase in Survival over OGD Control Cells,[1]; Concn 10 μM,+++ (>100% increase)
same,"Effectiveness in protecting OGD RGCs (in words, from Tables 5 and 6)",[2],more effective overall than the unsubstituted compound
"Oc1cccc2[nH]c(Cc3nc4c(O)cccc4[nH]3)nc12 [SNX 909, 4,4′-dihydroxyl*]",Percent Increase in Survival over OGD Control Cells,[1]; Concn 0.01 μM,+ (up to 50% increase)
same,Percent Increase in Survival over OGD Control Cells,[1]; Concn 0.1 μM,++ (50%-100% increase)
same,Percent Increase in Survival over OGD Control Cells,[1]; Concn 10 μM,+ (up to 50% increase)
same,Percent Increase in Survival over OGD Control Cells,[1]; Concn .1 μM,+++ (>100% increase)
same,"Effectiveness in protecting OGD RGCs (in words, from Tables 5 and 6)",[2],more effective overall than the unsubstituted compound
"Fc1cccc2[nH]c(Cc3nc4c(F)cccc4[nH]3)nc12 [SNX 930, 4,4′-difluoro*]",Percent Increase in Survival over OGD Control Cells,[1]; Concn 0.001 μM,+ (up to 50% increase)
same,Percent Increase in Survival over OGD Control Cells,[1]; Concn 0.01 μM,+++ (>100% increase)
same,Percent Increase in Survival over OGD Control Cells,[1]; Concn 0.1 μM,+ (up to 50% increase)
same,Percent Increase in Survival over OGD Control Cells,[1]; Concn 1 μM,++ (50%-100% increase)
same,Percent Increase in Survival over OGD Control Cells,[1]; Concn 10 μM,++ (50%-100% increase)
same,"Effectiveness in protecting OGD RGCs (in words, from Tables 5 and 6)",[2],more effective overall than the unsubstituted compound
"Nc1cccc2[nH]c(Cc3nc4cc(Cl)ccc4[nH]3)nc12 [SNX 923, 2-[(5-Chloro-1H-benzimidazol-2-yl)methyl]-1H-benzimidazol-4-amine]",Percent Increase in Survival over OGD Control Cells,[1]; Concn 0.001 μM,+++ (>100% increase)
same,Percent Increase in Survival over OGD Control Cells,[1]; Concn 0.01 μM,+++ (>100% increase)
same,Percent Increase in Survival over OGD Control Cells,[1]; Concn 0.1 μM,+++ (>100% increase)
same,Percent Increase in Survival over OGD Control Cells,[1]; Concn 1 μM,+++ (>100% increase)
same,Percent Increase in Survival over OGD Control Cells,[1]; Concn 10 μM,+++ (>100% increase)
same,"Effectiveness in protecting OGD RGCs (in words, from Tables 5 and 6)",[2],more effective overall than the unsubstituted compound
"NC(c1ncc[nH]1)c1ncc[nH]1 [SNX 949, 2,2′-(aminomethylene)bisimidazole]","Effectiveness in protecting OGD RGCs (in words, from Tables 5 and 6)",[2],very effective
"CN1CCN=C1Cc1nc2ccccc2[nH]1 [SNX 1019, 2-(1-methyl-4,5-dihydroimidazol-2-yl)methyl benzimidazole]","Effectiveness in protecting OGD RGCs (in words, from Tables 5 and 6)",[2],very effective
"CC(c1nc2ccccc2[nH]1)c1nc2ccccc2[nH]1 [SNX 925, 2,2′-ethylidenebisbenzimidazole]",Percent Increase in Survival over OGD Control Cells,[1]; Concn 0.001 μM,++ (50%-100% increase)
same,Percent Increase in Survival over OGD Control Cells,[1]; Concn 0.01 μM,+++ (>100% increase)
same,Percent Increase in Survival over OGD Control Cells,[1]; Concn 0.1 μM,+++ (>100% increase)
same,Percent Increase in Survival over OGD Control Cells,[1]; Concn 1 μM,+++ (>100% increase)
same,Percent Increase in Survival over OGD Control Cells,[1]; Concn 10 μM,+++ (>100% increase)
same,"Effectiveness in protecting OGD RGCs (in words, from Tables 5 and 6)",[2],very effective
"Cc1nc(-c2nc(C)c(C)[nH]2)[nH]c1C [SNX 939, 2,2′-bis(4,5-dimethylimidazole)]","Effectiveness in protecting OGD RGCs (in words, from Tables 5 and 6)",[2],very effective
"CN1CC[N+](C)=C1Cc1nc2ccccc2[nH]1 [SNX 980, 2-(1,3-Dimethyl-4,5-dihydro-1H-imidazol-2-ylmethyl)-1H-benzimidazole]","Effectiveness in protecting OGD RGCs (in words, from Tables 5 and 6)",[2],very effective
"O=[N+]([O-])c1cccc2[nH]c(Cc3nc4c([N+](=O)[O-])cccc4[nH]3)nc12 [SNX 901, 4,4′-dinitro*]",Percent Increase in Survival over OGD Control Cells,[1]; Concn 0.01 μM,++ (50%-100% increase)
same,Percent Increase in Survival over OGD Control Cells,[1]; Concn 0.1 μM,++ (50%-100% increase)
same,Percent Increase in Survival over OGD Control Cells,[1]; Concn 10 μM,+++ (>100% increase)
same,Percent Increase in Survival over OGD Control Cells,[1]; Concn .1 μM,+++ (>100% increase)
same,"Effectiveness in protecting OGD RGCs (in words, from Tables 5 and 6)",[2],more effective overall than the unsubstituted compound

# Source: patent US6541486B1, “Bis-benzimidazole compounds and analogs thereof for inhibiting cell death” (Elan Pharma International Ltd., priority 1999, dated 2003)
